# In publication PMC3985856 (Biochemistry, 2014):
# Biological target: T1, BAL (benzaldehyde lyase) (Pseudomonas fluorescens, UniProt Q9F4L3)
# T1 sequence (Q9F4L3 1-563): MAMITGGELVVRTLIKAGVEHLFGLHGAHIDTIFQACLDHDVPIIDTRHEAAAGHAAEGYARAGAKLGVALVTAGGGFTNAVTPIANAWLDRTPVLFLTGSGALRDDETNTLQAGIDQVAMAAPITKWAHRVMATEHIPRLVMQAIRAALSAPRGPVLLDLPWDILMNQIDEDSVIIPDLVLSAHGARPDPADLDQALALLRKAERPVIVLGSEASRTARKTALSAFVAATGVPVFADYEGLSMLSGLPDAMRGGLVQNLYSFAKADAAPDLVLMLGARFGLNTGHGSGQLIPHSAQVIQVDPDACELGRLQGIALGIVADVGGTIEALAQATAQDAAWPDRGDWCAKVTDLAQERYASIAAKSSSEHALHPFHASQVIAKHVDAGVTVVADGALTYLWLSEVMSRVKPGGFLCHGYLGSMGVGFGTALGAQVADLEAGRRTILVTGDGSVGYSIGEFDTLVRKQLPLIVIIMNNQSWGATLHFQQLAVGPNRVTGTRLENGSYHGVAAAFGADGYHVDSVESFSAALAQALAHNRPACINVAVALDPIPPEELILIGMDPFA
# Assay: CD titration, Hill fit
# Type: binding
# Details: pH 8.0, 50 mM Tris, 0.2 mM ThDP, 1 mM MgCl2, 30 °C; covalent adduct with ThDP
smiles,measurement,value
"O=C(O)C(=O)/C=C/c1ccc(Cl)cc1 [CPB, (E)-4-(4-chlorophenyl)-2-oxo-3-butenoic acid]",Kd,1100 µM
